{"source": "patent US9738677B2", "about": "“Amphotericin B derivative with reduced toxicity” (priority 2014, dated 2017)", "key": {"healthy mice": {"test_system": "healthy mice", "experiment": "Acute toxicity, single intravenous administration, lethality", "assay_type": "in vivo, mouse", "conditions": "healthy mice, single intravenous 4 mg/kg", "method": "FIG. 8 is a graph depicting lethality in healthy mice resulting from single intravenous administrations in the doses indicated of AmB or C2′epiAmB.\nIn a separate experiment, acute toxicity was determined by single intravenous administration of AmB or C2′epiAmB to healthy mice, followed by monitoring for lethality."}, "human red blood cells": {"test_system": "human red blood cells", "experiment": "Minimum hemolysis concentration (MHC) assay", "assay_type": "cell-based", "conditions": "concentration causing 90% hemolysis of human red blood cells, 2 hours, 37° C.", "procedure": "The protocol for the hemolysis assay was adapted from the report of Paquet and coworkers. […] Whole human blood (sodium heparin) was purchased from Bioreclamation LLC (Westbury, N.Y.) and stored at 4° C. and used within two days of receipt. To a 2.0 mL Eppendorf tube, 1 mL of whole human blood was added and centrifuged at 10,000 g for 2 minutes. The supernatant was removed and the erythrocyte pellet was washed with 1 mL of sterile saline and centrifuged at 10,000 g for 2 minutes. The saline wash was repeated for a total of three washes. The erythrocyte pellet was suspended in 1 mL of RBC buffer (10 mM NaH2PO4, 150 mM NaCl, 1 mM MgCl2, pH 7.4) to form the erythrocyte stock suspension.\nPositive and negative controls were prepared by adding 1 μL of DMSO to MilliQ water or RBC buffer, respectively to 0.2 mL PCR tube. To each PCR tube, 0.63 μL of the erythrocyte stock suspension was added and mixed by inversion. The samples were incubated at 37° C. for 2 hours. The samples were mixed by inversion and centrifuged at 10,000 g for 2 minutes. 15 μL of the supernatant from each sample was added to a 384-well place. Absorbances were read at 540 nm using a Biotek H1 Synergy Hybrid Reader (Wanooski, Vt.). Experiments were performed in triplicate and the reported MHC represents an average of three experiments.\nPercent hemolysis was determined according to the following equation:\n[formula] […]"}, "[1]": {"test_system": "primary human renal proximal tubule epithelial cells", "experiment": "WST-8 cell proliferation assay (MTC)", "assay_type": "cell-based", "method": "WST-8 Cell Proliferation Assays\nPrimary human renal proximal tubule epithelial cells (RPTECs) were purchased from ATCC (Manassas, Va.) and immediately cultured upon receipt. Complete growth media was prepared using renal epithelial cell basal medium (ATCC, PCS-400-030), renal epithelial cell growth kit (ATCC, PCS-400-040), and penicillin-streptomycin (10 units/mL and 10 μg/mL). Complete media was stored at 4° C. in the dark and used within 28 days. Primary RPTECs were grown in CO2 incubator at 37° C. with an atmosphere of 95% air/5% CO2.\nWST-8 cell proliferation assay kit (Ser. No. 10/010,199) was purchased from Cayman Chemical Company (Ann Arbor, Mich.) and stored at −20° C. and used within 6 months of receipt. WST-8 reagent and electron mediator solution were thawed and mixed to prepare the WST-8 reagent solution. The solution was stored at −20° C. and used within one week.\nA suspension of primary RPTECs in complete growth media was brought to a concentration of 1×10^5 cells/mL. A 96-well plate was seeded with 99 μL of the cell suspension and incubated at 37° C. with an atmosphere of 95% air/5% CO2 for 3 hours. Positive and negative controls were prepared by seeding with 100 μL of the cell suspension or 100 μL of the complete media. Compounds were prepared as 5 mM (AmB), 20 mM (C2′deOAmB), and 50 mM (C2′epiAmB) stock solutions in DMSO and serially diluted to the following concentrations with DMSO: 50000, 40000, 30000, 20000, 10000, 8000, 6000, 4000, 3000, 2000, 1500, 1000, 800, 600, 400, 300, 200, 100, 50, 25, 10, 5, 2.5, 1, 0.5, 0.25, and 0.1 μM. 1 μL aliquots of each solution were added to the 96-well plate in triplicate, with each column representing a different concentration of the test compound. The 96-well plate was incubated at 37° C. with an atmosphere of 95% air/5% CO2 for 24 hours. […] Following incubation, the 96-well plate was mixed in a shaking incubator at 200 rpm for 1 minute and absorbances were read at 450 nm using a Biotek H1 Synergy Hybrid Reader (Wanooski, Vt.). […]"}, "[2]": {"experiment": "ITC sterol binding, POPC LUVs containing 10% ergosterol", "conditions": "net exotherm vs sterol-free LUVs", "method": "(§1) Isothermal Titration calorimetry (ITC)\n(§2) In an optimized isothermal titration calorimetry (ITC)-based assay, an aqueous solution of AmB was titrated with a suspension of large unilamellar vesicles (LUVs) comprised of only 1-palmitoyl-2-oleoyl-sn-glycero-3-phosphocholine (POPC), and the net exotherm was recorded. The titration was repeated using POPC LUVs containing 10% ergosterol. […] The titration was repeated using C2′epiAmB. […] The ITC assay was also conducted with cholesterol in place of ergosterol.\n(§3) Experiments were performed using a NanoITC isothermal titration calorimeter (TA Instruments, Wilmington, Del.). Solutions of the compounds to be tested were prepared by diluting a 60.0 mM stock solution of the compound in DMSO to 600 μM with K buffer (5.0 mM HEPES/KHEPES, pH=7.4). The final DMSO concentration in the solution was 1% v/v. Large unilamellar vesicles comprised of only 1-palmitoyl-2-oleoyl-sn-glycero-3-phosphocholine (POPC LUVs) were prepared and phosphorus and ergosterol content was quantified as described below. The LUV solutions were diluted with buffer and DMSO to give a final phospholipid concentration of 12.0 mM in a 1% DMSO/K buffer solution. Immediately prior to use, all solutions were incubated at 37° C. for 30 minutes and degassed under vacuum at 37° C. for 10 minutes. The reference cell of the instrument (volume=0.190 mL) was filled with a solution of 1% v/v DMSO/K buffer.\nPalmitoyl oleoyl phosphatidylcholine (POPC) was obtained as a 20 mg/mL solution in CHCl3 from Avanti Polar Lipids (Alabaster, Ala.) and was stored at −20° C. under an atmosphere of dry argon and used within 1 month. […]\nErgosterol content was determined spectrophotometrically. […] The solutions were then analyzed by UV/Vis spectroscopy and the concentration of ergosterol in solution was determined by the extinction coefficient of 10400 L mol^−1 cm^−1 at the UVmax of 282 nm and was compared to the concentration of phosphorus to determine the percent sterol content. The extinction coefficient was determined independently in the above ternary solvent system. […]"}, "[3]": {"conditions": "previously found; cited from earlier work"}, "[4]": {"conditions": "previously found; cited from earlier work", "remark": "listed apart in the source"}, "renal cells": {"test_system": "renal cells", "assay_type": "cell-based, human", "method": "Cells were imaged using an AMG (Bothell, Wash.) EVOS fl Microscope. Images were taken using transmitted light at 10× objective.\n(18) Due to the limited solubility of AmB and its derivatives in the renal cell media, 80 μM is the highest concentration we were able to study. At higher concentrations, the aggregate blocks the light path of the plate reader, giving false high absorbance readings."}, "yeast [5]": {"test_system": "yeast", "conditions": "previously found; cited from earlier work"}, "[6]": {"experiment": "ITC sterol binding, POPC LUVs containing 10% cholesterol", "conditions": "within the limits of the binding assay", "method": "as §1, §2, §3\nPalmitoyl oleoyl phosphatidylcholine (POPC) was obtained as a 20 mg/mL solution in CHCl3 from Avanti Polar Lipids (Alabaster, Ala.) and was stored at −20° C. under an atmosphere of dry argon and used within 1 month. A 4 mg/mL solution of ergosterol in CHCl3 was prepared monthly and stored at 4° C. under an atmosphere of dry argon. […]\nNanoAnalyze software (TA Instruments) was used for baseline determination and integration of the injection heats, and Microsoft Excel was used for subtraction of dilution heats and the calculation of overall heat evolved. […] By this method, the overall heat evolved during the experiment was calculated using the following formula: […]"}, "yeast [7]": {"test_system": "yeast", "conditions": "reported by Carreira and coworkers; cited from earlier work"}, "[8]": {"conditions": "Chol-containing POPC liposomes, 1 μM; cited from earlier work"}}, "data": [{"smiles": "C[C@@H]1[C@H](O)[C@@H](C)/C=C/C=C/C=C/C=C/C=C/C=C/C=C/[C@H](O[C@@H]2O[C@H](C)[C@@H](O)[C@H](N)[C@@H]2O)C[C@@H]2O[C@](O)(C[C@@H](O)C[C@@H](O)[C@H](O)CC[C@@H](O)C[C@@H](O)CC(=O)O[C@H]1C)C[C@H](O)[C@H]2C(=O)O", "note": "[AmB, amphotericin B]", "values": [{"measurement": "Lethality", "setting": "healthy mice", "value": "died within seconds"}, {"measurement": "MHC (minimum hemolytic concentration)", "setting": "human red blood cells", "value": 8.5, "unit": "µM"}, {"measurement": "MTC (minimum toxic concentration)", "setting": "[1]; concentration causing 90% loss of cell viability, primary human RPTECs, 24 hours", "value": 2.4, "unit": "µM"}, {"measurement": "Binding to ergosterol (in words)", "setting": "[2]", "value": "significant increase in net exotherm"}]}, {"smiles": "C[C@@H]1[C@H](O)[C@@H](C)C=CC=CC=CC=CC=CC=CC=C[C@H](O)C[C@@H]2O[C@](O)(C[C@@H](O)C[C@@H](O)[C@H](O)CC[C@@H](O)C[C@@H](O)CC(=O)O[C@H]1C)C[C@H](O)[C@H]2C(=O)O", "note": "[AmdeB, amphoteronolide B]", "values": [{"measurement": "Capacity to bind cholesterol (previous work)", "setting": "[3]", "value": "eliminates its capacity to bind both ergosterol and cholesterol"}, {"measurement": "Capacity to bind ergosterol (previous work)", "setting": "[4]", "value": "eliminates its capacity to bind both ergosterol and cholesterol"}, {"measurement": "Visual evidence of toxicity in microscope images of renal cells", "setting": "renal cells", "value": "no visual evidence of toxicity"}, {"measurement": "Toxicity to yeast (previous work)", "setting": "yeast [5]", "value": "non-toxic to yeast"}]}, {"smiles": "C[C@@H]1[C@H](O)[C@@H](C)/C=C/C=C/C=C/C=C/C=C/C=C/C=C/[C@H](O[C@H]2C[C@@H](N)[C@H](O)[C@@H](C)O2)C[C@@H]2O[C@](O)(C[C@@H](O)C[C@@H](O)[C@H](O)CC[C@@H](O)C[C@@H](O)CC(=O)O[C@H]1C)C[C@H](O)[C@H]2C(=O)O", "note": "[C2′deOAmB]", "values": [{"measurement": "Binding to cholesterol (in words)", "setting": "[6]", "value": "do not bind cholesterol"}, {"measurement": "Visual evidence of toxicity in microscope images of renal cells", "setting": "renal cells", "value": "no visual evidence of toxicity"}, {"measurement": "Toxicity to primary human renal proximal tubule epithelial cells (in words)", "setting": "[1]; up to limits of solubility", "value": "no evidence of toxicity up to their limits of solubility"}]}, {"smiles": "COC(=O)[C@H]1[C@@H]2C[C@@H](O[C@@H]3O[C@H](C)[C@@H](O)[C@H](N)[C@H]3O)/C=C/C=C/C=C/C=C/C=C/C=C/C=C/[C@H](C)[C@@H](O)[C@@H](C)[C@H](C)OC(=O)C[C@H](O)C[C@H](O)CC[C@@H](O)[C@H](O)C[C@H](O)C[C@](O)(C[C@@H]1O)O2", "note": "[C2′epiAmE, C2′epiAmB methyl ester]", "values": [{"measurement": "Potency in yeast MIC assays compared to AmB", "setting": "yeast [7]", "value": "equipotent to AmB"}, {"measurement": "Efflux of potassium ions", "setting": "[8]", "value": "caused efflux of potassium ions"}]}]}
